Laboratory results from patent publication US9125388B2, “Biological control” (Isis Innovation Limited, priority 1999, dated 2015).

Legend:
Format in all cases: in vivo, Drosophila melanogaster
[1] = tested on: Recombinant chromosome stocks; assay: Maintenance of stocks on non-antibiotic tetracycline analogues; settings: for concentration on which recombinant chromosome stocks can readily be maintained / repressing tTA responsive gene expression: 25° C.
Protocol: Recombinant chromosome stocks can readily be maintained at 25° C. on epioxytetracycline concentrations of 1 μg/ml or anhydrotetracycline concentrations of 0.1 μg/ml, showing that these non-antibiotic tetracycline analogues are effective in repressing tTA responsive gene expression.
(§1) A standard range of additive concentrations were used in the following experiments (0.05-20 μg/ml). […] (=“not done”)

[2] = tested on: Yp3 tTa, tRe Ras64B^V12 on the 2nd chromosome; assay: Recombinant chromosome experiments / maternal transmission of Tc (Table 1): parents raised on supplement, progeny on normal food, adults by sex; settings: 25° C.
Protocol: (§2) 40-45 young females and 20-25 young males raised at 25° C. upon food with the indicated tetracycline supplement were allowed to mate, then transferred to normal (tetracycline-free) food after 3-4 days. These flies were transferred to fresh vials of normal food every day for 12 days, then removed on the 13th day. All the vials were incubated at 25° C. while the progeny developed. The numbers of male and female progeny emerging as adults in each vial were recorded.
as §1
(§3) All the preceding experiments were performed at 25° C., the standard temperature for Drosophila culture. However, the insects in the wild would clearly be exposed to varying temperatures, so we investigated the extent to which the efficiency of the system is affected by temperature. As with the recombinant chromosome experiments, 40-45 young virgin females and 20-25 young males raised at 25° C. upon food with the indicated tetracycline supplement were allowed to mate, then transferred to normal (tetracycline-free) food after 3-4 days. These flies were transferred to fresh vials of normal food every day. The numbers of male and female progeny emerging as adults in each vial were recorded. These experiments were performed at either 18° C. or 29° C.
We used a strain of Drosophila in which females, but not males, require Tc for viability.
A strain homozygous for second chromosome insertions of both Yp3-tTA and tRe-Ras64B^V12 was tested for the effect of parental dietary Tc. 40-45 young females and 20-25 young males raised at 25° C. upon food with the indicated tetracycline supplement were allowed to mate, then transferred to normal (tetracycline-free) food after 3-4 days. These flies were transferred to fresh vials of normal food every day for 12 days, and then removed on the 13th day. All the vials were incubated at 25° C. while the progeny developed. The total numbers of male and female progeny emerging as adults were recorded.

[3] = tested on: Yp3 tTa, tRe Msl-1^Mpu on the 2nd chromosome; assay: Recombinant chromosome experiments: parents raised on supplement, progeny on normal food, adults by sex (25, 18 or 29° C.); settings: 25° C.
Protocol: as §2
Since there is no meiotic recombination in Drosophila melanogaster males, any of these recombinant chromosomes could be used in a genetic sexing or insect control program, if required.
as §1, §3

[4] = tested on: Hsp26 tTa, tRe Msl-2^Nopu on the 2nd chromosome; assay: as above; settings: 25° C.
Protocol: as §2, §1, §3

[5] = tested on: Hsp26 tTa, tRe Msl-1^Mpu on the 2nd chromosome; assay: as above; settings: 25° C.
Protocol: as §2, §1, §3

[6] = tested on: Sxl^pe-tTA, tRE-Msl-2^Nopu on the X chromosome; assay: as above; settings: 25° C.
Protocol: as §2, §1, §3

[7] = tested on: Yp3 tTa, tRe Msl-2^Nopu on the 2nd chromosome; assay: as above; settings: 25° C.
Protocol: as §2, §1, §3

[8] = tested on: Sxl^pe-tTA, tRE-Ras64B^V12 on the X chromosome; assay: as above; settings: for Female progeny emerging as adults / Male progeny emerging as adults: 25° C.
Protocol: as §2, §1, §3

[9] = tested on: Sxl^pe-tTA, tRE-Ras64B^V12 on the third chromosome; assay: as above; settings: 25° C.
Protocol: as §2, §1, §3

[10] = tested on: Sxl^pe-tTA, tRE-Msl-2^Nopu on the third chromosome; assay: as above; settings: 25° C.
Protocol: as §2, §1, §3

[11] = tested on: Sxlp^e tTa, tRe Msl-1^Mpu on the X chromosome; assay: as above; settings: 25° C.
Protocol: as §2, §1, §3

[12] = parents raised on anhydrotetracycline 0.05 μg/ml
[13] = parents raised on anhydrotetracycline 0.1 μg/ml
[14] = parents raised on anhydrotetracycline 1 μg/ml
[15] = parents raised on anhydrotetracycline 5 μg/ml
[16] = parents raised on anhydrotetracycline 20 μg/ml
[17] = parents raised on epioxytetracycline 1 μg/ml
[18] = parents raised on epioxytetracycline 5 μg/ml
[19] = parents raised on epioxytetracycline 20 μg/ml
[20] = Epioxytetracycline Conc. 1 μg/ml
[21] = Epioxytetracycline Conc. 5 μg/ml
[22] = Epioxytetracycline Conc. 20 μg/ml

SMILES: Cc1c2c(c(O)c3c(O)cccc13)C(=O)[C@]1(O)C(=O)C(C(N)=O)=C(O)[C@@H](N(C)C)[C@@H]1C2 [anhydrotetracycline]
- concentration on which recombinant chromosome stocks can readily be maintained [1]: 0.1 µg/mL
- repressing tTA responsive gene expression [1]: effective
- Female progeny emerging as adults [2, 12]: 0
- Male progeny emerging as adults [2, 12]: 1449
- Female progeny emerging as adults [2, 13]: 0
- Male progeny emerging as adults [2, 13]: 1411
- Female progeny emerging as adults [2, 14]: 0
- Male progeny emerging as adults [2, 14]: 1397
- Female progeny emerging as adults [2, 15]: 0
- Male progeny emerging as adults [2, 15]: 1430
- Female progeny emerging as adults [2, 16]: 2
- Male progeny emerging as adults [2, 16]: 1428
- Female progeny emerging as adults [3, 12]: 0
- Male progeny emerging as adults [3, 12]: 1339
- Female progeny emerging as adults [3, 13]: 0
- Male progeny emerging as adults [3, 13]: 1263
- Female progeny emerging as adults [3, 14]: 0
- Male progeny emerging as adults [3, 14]: 1265
- Female progeny emerging as adults [3, 15]: 0
- Male progeny emerging as adults [3, 15]: 1284
- Female progeny emerging as adults [3, 16]: 0
- Male progeny emerging as adults [3, 16]: 1297
- Female progeny emerging as adults [4, 12]: 0
- Male progeny emerging as adults [4, 12]: 707
- Female progeny emerging as adults [4, 13]: 0
- Male progeny emerging as adults [4, 13]: 1457
- Female progeny emerging as adults [4, 14]: 0
- Male progeny emerging as adults [4, 14]: 1437
- Female progeny emerging as adults [4, 15]: 0
- Male progeny emerging as adults [4, 15]: 773
- Female progeny emerging as adults [4, 16]: 5
- Male progeny emerging as adults [4, 16]: 1447
- Female progeny emerging as adults [5, 12]: 0
- Male progeny emerging as adults [5, 12]: 1492
- Female progeny emerging as adults [5, 13]: 0
- Male progeny emerging as adults [5, 13]: 1426
- Female progeny emerging as adults [5, 14]: 0
- Male progeny emerging as adults [5, 14]: 1418
- Female progeny emerging as adults [5, 15]: 0
- Male progeny emerging as adults [5, 15]: 1457
- Female progeny emerging as adults [5, 16]: 8
- Male progeny emerging as adults [5, 16]: 1499
- Female progeny emerging as adults [6, 12]: 0
- Male progeny emerging as adults [6, 12]: 1114
- Female progeny emerging as adults [6, 13]: 0
- Male progeny emerging as adults [6, 13]: 1120
- Female progeny emerging as adults [6, 14]: 0
- Male progeny emerging as adults [6, 14]: 1130
- Female progeny emerging as adults [6, 15]: 0
- Male progeny emerging as adults [6, 15]: 1148
- Female progeny emerging as adults [6, 16]: 0
- Male progeny emerging as adults [6, 16]: 1128
- Female progeny emerging as adults [7, 12]: 0
- Male progeny emerging as adults [7, 12]: 1316
- Female progeny emerging as adults [7, 13]: 0
- Male progeny emerging as adults [7, 13]: 1358
- Female progeny emerging as adults [7, 14]: 0
- Male progeny emerging as adults [7, 14]: 1354
- Female progeny emerging as adults [7, 15]: 0
- Male progeny emerging as adults [7, 15]: 1344
- Female progeny emerging as adults [7, 16]: 1
- Male progeny emerging as adults [7, 16]: 1312
- Female progeny emerging as adults [8, 12]: 0
- Male progeny emerging as adults [8, 12]: 1452
- Female progeny emerging as adults [8, 13]: 0
- Male progeny emerging as adults [8, 13]: 1528
- Female progeny emerging as adults [8, 14]: 0
- Male progeny emerging as adults [8, 14]: 1614
- Female progeny emerging as adults [8, 15]: 0
- Male progeny emerging as adults [8, 15]: 1448
- Female progeny emerging as adults [8, 16]: 5
- Male progeny emerging as adults [8, 16]: 1592
- Female progeny emerging as adults [9, 12]: 0
- Male progeny emerging as adults [9, 12]: 1381
- Female progeny emerging as adults [9, 13]: 0
- Male progeny emerging as adults [9, 13]: 1304
- Female progeny emerging as adults [9, 14]: 0
- Male progeny emerging as adults [9, 14]: 1121
- Female progeny emerging as adults [9, 15]: 0
- Male progeny emerging as adults [9, 15]: 1269
- Female progeny emerging as adults [9, 16]: 1
- Male progeny emerging as adults [9, 16]: 1247
- Female progeny emerging as adults [10, 12]: 0
- Male progeny emerging as adults [10, 12]: 1331
- Female progeny emerging as adults [10, 13]: 0
- Male progeny emerging as adults [10, 13]: 1431
- Female progeny emerging as adults [10, 14]: 0
- Male progeny emerging as adults [10, 14]: 1309
- Female progeny emerging as adults [10, 15]: 0
- Male progeny emerging as adults [10, 15]: 1359
- Female progeny emerging as adults [10, 16]: 1
- Male progeny emerging as adults [10, 16]: 1362
- Female progeny emerging as adults [11, 12]: 0
- Male progeny emerging as adults [11, 12]: 1582
- Female progeny emerging as adults [11, 13]: 0
- Male progeny emerging as adults [11, 13]: 1499
- Female progeny emerging as adults [11, 14]: 0
- Male progeny emerging as adults [11, 14]: 1474
- Female progeny emerging as adults [11, 15]: 0
- Male progeny emerging as adults [11, 15]: 1619
- Female progeny emerging as adults [11, 16]: 5
- Male progeny emerging as adults [11, 16]: 1533

SMILES: CN(C)[C@H]1C(O)=C(C(N)=O)C(=O)[C@@]2(O)C(O)=C3C(=O)c4c(O)cccc4[C@@](C)(O)[C@H]3[C@H](O)[C@@H]12 [epioxytetracycline]
- concentration on which recombinant chromosome stocks can readily be maintained [1]: 1 µg/mL
- repressing tTA responsive gene expression [1]: effective
- concentration required to repress gene expression, compared with tetracycline ([1]; in vivo): slightly higher concentrations are required
- stock maintenance at the two lowest concentrations ([1]; standard range of additive concentrations 0.05-20 μg/ml): unable to maintain stock
- Female progeny emerging as adults [2, 17]: 0
- Male progeny emerging as adults [2, 17]: 1431
- Female progeny emerging as adults [2, 18]: 0
- Male progeny emerging as adults [2, 18]: 1424
- Female progeny emerging as adults [2, 19]: 0
- Male progeny emerging as adults [2, 19]: 1387
- Female progeny emerging as adults [3, 17]: 0
- Male progeny emerging as adults [3, 17]: 1350
- Female progeny emerging as adults [3, 18]: 0
- Male progeny emerging as adults [3, 18]: 1308
- Female progeny emerging as adults [3, 19]: 0
- Male progeny emerging as adults [3, 19]: 1343
- Female progeny emerging as adults [4, 17]: 0
- Male progeny emerging as adults [4, 17]: 1362
- Female progeny emerging as adults [4, 18]: 0
- Male progeny emerging as adults [4, 18]: 1181
- Female progeny emerging as adults [4, 19]: 0
- Male progeny emerging as adults [4, 19]: 1403
- Female progeny emerging as adults [5, 17]: 0
- Male progeny emerging as adults [5, 17]: 1243
- Female progeny emerging as adults [5, 18]: 0
- Male progeny emerging as adults [5, 18]: 1409
- Female progeny emerging as adults [5, 19]: 0
- Male progeny emerging as adults [5, 19]: 1373
- Female progeny emerging as adults [6, 17]: 0
- Male progeny emerging as adults [6, 17]: 1076
- Female progeny emerging as adults [6, 18]: 0
- Male progeny emerging as adults [6, 18]: 1119
- Female progeny emerging as adults [6, 19]: 0
- Male progeny emerging as adults [6, 19]: 1159
- Female progeny [8, 20]: 0
- Male progeny [8, 20]: 1306
- Female progeny [8, 21]: 0
- Male progeny [8, 21]: 1581
- Female progeny [8, 22]: 0
- Male progeny [8, 22]: 1495
- Female progeny emerging as adults [9, 17]: 0
- Male progeny emerging as adults [9, 17]: 1165
- Female progeny emerging as adults [9, 18]: 0
- Male progeny emerging as adults [9, 18]: 1279
- Female progeny emerging as adults [9, 19]: 0
- Male progeny emerging as adults [9, 19]: 1257
- Female progeny emerging as adults [10, 17]: 0
- Male progeny emerging as adults [10, 17]: 1250
- Female progeny emerging as adults [10, 18]: 0
- Male progeny emerging as adults [10, 18]: 1300
- Female progeny emerging as adults [10, 19]: 0
- Male progeny emerging as adults [10, 19]: 1364
- Female progeny emerging as adults [11, 17]: 0
- Male progeny emerging as adults [11, 17]: 1483
- Female progeny emerging as adults [11, 18]: 0
- Male progeny emerging as adults [11, 18]: 1585
- Female progeny emerging as adults [11, 19]: 0
- Male progeny emerging as adults [11, 19]: 1565
